Measurements: US7071221B2, “Heterocyclic oxime compounds” (Les Laboratoires Servier, priority 2004, dated 2006)

System: ob/ob mouse
Test: Antidiabetic and hypolipidaemic effect in the ob/ob mouse
Type: in vivo
Details: female ob/ob mouse; for decrease of glycaemia compared to the control group: twice per day for four days (10 mg/kg i.p. or 30 mg/kg per os; route not given), glycaemia 24 hours after final administration
Excerpt: Mutations in laboratory animals and also different sensitivities to dietary regimens have allowed the development of animal models having non-insulin dependent diabetes and hyperlipidaemia associated with obesity and with resistance to insulin.
Genetic mice models (ob/ob) (Diabetes, 1982, 31 (1), 1–6) and Zucker (fa/fa) rats have been developed by various laboratories in order to understand the physiopathology of those diseases and test the efficacy of new antidiabetic compounds (Diabetes, 1983, 32, 830–838).
Antidiabetic and Hypolipidaemic Effect in the ob/ob Mouse
The 10-week-old female ob/ob mouse (Harlan) is used for the in vivo tests. The animals are kept in a light-darkness cycle of 12 hours at 25° C. The mouse has a basal hyperglycaemia of 2 g/l. The animals are randomly selected in terms of their glycaemia to form groups of six. The compounds tested by the intraperitoneal route are dissolved in a mixture of dimethyl sulphoxide (10%) and Solutol (15%) to be administered at 10 mg/kg in a volume of 2.5 ml/kg twice per day for four days. By the per os route, the compounds are tested at 30 mg/kg administered in a volume of 2.5 ml/kg of 1% HEC twice per day for four days. The control groups receive the solvents under the same conditions as the treated groups. The activity of the products is evaluated by measuring glycaemia 24 hours after the final administration and by measuring body weight daily.

CON=C(c1ccccc1)c1ccc2c(c1)sc(=O)n2CCOc1ccc(CC(OCC(F)(F)F)C(=O)OC)cc1 (centres unmarked) [Example 3, Methyl 3-{4-[2-(6-[(methoxyimino)(phenyl)methyl]-2-oxo-1,3-benzothiazol-3(2H)-yl)ethoxy]phenyl}-2-(2,2,2-trifluoroethoxy)-propanoate]
decrease of the gain of weight compared to the control group (twice per day for four days): 80%
decrease of glycaemia compared to the control group: 51%

CN(CCOc1ccc(CC2SC(=O)NC2=O)cc1)c1ccccn1 (centres unmarked) [Rosiglitazone, rosiglitazone]
change in body weight (four days treatment, body weight measured daily): significant increase
increase of the body weight compared to the increase of body weight of the control group (twice per day for four days): 33%
decrease of glycaemia compared to the control group: 61%
